# Experiments:
# [1] = test system: U937 cells; assay: Cytotoxicity (MTT uptake) of guggulsterone with JNK inhibitor; assay type: cell-based, human; conditions: 72 h
# Method: Cytotoxicity assay. The cytotoxic effects of guggulsterone was determined by the MTT uptake method. Briefly, 5000 cells were incubated with guggulsterone in triplicate in a 96-well plate at 37° C. MTT solution was then added to each well. After a 2-h incubation at 37° C., extraction buffer (20% SDS, 50% dimethylformamide) was added, the cells were incubated overnight at 37° C., and the OD was then measured at 570 nm using a 96-well multiscanner (Dynex Technologies, MRX Revelation, Chantilly, Va.).
# [2] = target: NF-κB p65 subunit (RelA) in nuclear extracts of TNF-treated human H1299 cells (human, UniProt Q04206 1-551); assay: EMSA supershift assay, nuclear extracts of TNF-treated H1299 cells
# Method: Nuclear extracts were prepared and tested for NF-κB activation. […] H1299 cells (2×10⁶/ml) were pre-incubated with 50 μM guggulsterone for the indicated times at 37° C. and then treated with 0.1 nM TNF for 30 min at 37° C. Nuclear extracts were prepared and then tested for NF-κB activation. […] Nuclear extracts from H1299 cells (2×10⁶/ml) treated or not treated with 0.1 nM TNF for 30 min were incubated with the antibodies indicated for 30 min at room temperature, and the complex was analyzed by supershift assay. […] Nuclear extracts from H1299 cells (2×10⁶/ml) treated or not treated with 0.1 nM TNF for 30 min were treated with the indicated concentrations of guggulsterone for 4 hours at room temperature and then assayed for DNA binding by EMSA.
# NF-κB Activation: To determine NF-κB activation, EMSA was carried out as previously described (Chaturvedi et al., 2000). […] For supershift assays, nuclear extracts prepared from TNF-treated cells were incubated with antibodies against either the p50 or the p65 subunit of NF-κB for 30 min at room temperature before the complex was analyzed by EMSA. The dried gels were visualized, and radioactive bands were quantitated using a PHOSPHORIMAGER™ (Molecular Dynamics, Sunnyvale, Calif.) using IMAGEQUANT™ software.
# Chain of NF-κB p65 subunit (RelA) in nuclear extracts of TNF-treated human H1299 cells (Q04206 whole entry): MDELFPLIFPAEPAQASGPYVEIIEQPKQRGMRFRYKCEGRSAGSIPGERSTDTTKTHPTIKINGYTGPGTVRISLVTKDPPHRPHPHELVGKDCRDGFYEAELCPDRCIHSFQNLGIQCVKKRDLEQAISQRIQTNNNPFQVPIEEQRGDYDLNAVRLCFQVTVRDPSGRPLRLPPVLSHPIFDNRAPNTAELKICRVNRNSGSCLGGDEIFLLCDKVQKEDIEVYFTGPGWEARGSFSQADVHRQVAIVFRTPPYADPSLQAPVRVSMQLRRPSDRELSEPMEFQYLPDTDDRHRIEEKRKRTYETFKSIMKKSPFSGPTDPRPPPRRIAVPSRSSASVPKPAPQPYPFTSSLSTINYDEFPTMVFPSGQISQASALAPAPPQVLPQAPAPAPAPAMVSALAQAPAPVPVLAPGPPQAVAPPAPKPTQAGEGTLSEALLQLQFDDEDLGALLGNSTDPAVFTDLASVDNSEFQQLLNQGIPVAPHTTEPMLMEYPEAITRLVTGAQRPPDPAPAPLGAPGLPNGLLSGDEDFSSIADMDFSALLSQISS
binding result [2],Molecule,guggulsterone induced cytotoxicity in combination with JNK inhibitor [1]
,Oc1c2ccccc2c2c3c(cccc13)N=N2 [SP600125],blocks guggulsterone induced cytotoxicity
binds,"NF-κB p50 subunit (NF-κB1) in nuclear extracts of TNF-treated human H1299 cells (other, UniProt P19838 1-433, looked up) MAEDDPYLGRPEQMFHLDPSLTHTIFNPEVFQPQMALPTDGPYLQILEQPKQRGFRFRYVCEGPSHGGLPGASSEKNKKSYPQVKICNYVGPAKVIVQLVTNGKNIHLHAHSLVGKHCEDGICTVTAGPKDMVVGFANLGILHVTKKKVFETLEARMTEACIRGYNPGLLVHPDLAYLQAEGGGDRQLGDREKELIRQAALQQTKEMDLSVVRLMFTAFLPDSTGSFTRRLEPVVSDAIYDSKAPNASNLKIVRMDRTAGCVTGGEEIYLLCDKVQKDDIQIRFYEEEENGGVWEGFGDFSPTDVHRQFAIVFKTPKYKDINITKPASVFVQLRRKSDLETSEPKPFLYYPEIKDKEEVQRKRQKLMPNFSDSFGGGSGAGAGGGGMFGSGGGGGGTGSTGPGYSFPHYGFPTYGGITFHPGTTKSNAGMKHG",

# Source: patent US20060019907A1, “Guggulsterone: an inhibitor of nuclear factor - kappaB and IkappaBalpha kinase activation and uses thereof” (Research Development Foundation, priority 2004, published 2006)
